# Article PMC4151019 (Clinical Pharmacology and Therapeutics, 2014)
# pKi: −log10 of the molar value. Values joined by “and” are separate entries in the source; they are usually repeats but may differ in a detail not shown here. Identical values can stand only once. Like-named read-outs stand apart in the source and are kept apart here.
# Key:
# [1] = format: in vivo, human
# [2] = system: CYP2B6; test: CYP2B6 phenotyping with bupropion; conditions: rifampicin-mediated induction; matrix not stated
# [3] = system: CYP2D6; conditions: read-out: inhibition constant (Ki); cited from earlier work
# [4] = Comparison of probe Cmax and AUC in DBS and plasma; format: in vivo, human; conditions: for blood plasma ratio: human, capillary whole blood (DBS) versus venous plasma, oral
# [5] = after a single 75-mg bupropion dose; cited from earlier work
# [6] = biological target: T1, CYP1A2 (Homo sapiens, UniProt P05177); test: CYP1A2 phenotyping with caffeine; conditions: par/caf AUClast ratio in DBS
# T1 sequence (P05177 1-516): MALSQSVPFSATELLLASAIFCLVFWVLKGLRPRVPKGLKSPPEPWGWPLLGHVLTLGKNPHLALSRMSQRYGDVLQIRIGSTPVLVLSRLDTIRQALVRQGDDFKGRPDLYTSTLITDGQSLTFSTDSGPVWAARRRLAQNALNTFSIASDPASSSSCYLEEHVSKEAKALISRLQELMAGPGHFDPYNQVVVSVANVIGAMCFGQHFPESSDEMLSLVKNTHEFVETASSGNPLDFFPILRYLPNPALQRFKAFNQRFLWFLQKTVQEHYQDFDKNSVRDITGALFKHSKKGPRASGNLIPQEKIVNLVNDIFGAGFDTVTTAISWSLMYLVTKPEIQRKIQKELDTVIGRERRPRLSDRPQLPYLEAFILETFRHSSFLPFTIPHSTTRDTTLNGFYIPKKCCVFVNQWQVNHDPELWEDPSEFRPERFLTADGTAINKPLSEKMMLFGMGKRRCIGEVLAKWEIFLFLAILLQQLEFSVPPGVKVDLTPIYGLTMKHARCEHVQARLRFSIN
# [7] = Side effects reported by volunteers; conditions: 10 healthy volunteers
# [8] = biological target: CYP2C19 (Homo sapiens, UniProt P33261); conditions: previous studies; cited from earlier work
# CYP2C19, sequence (P33261 whole entry): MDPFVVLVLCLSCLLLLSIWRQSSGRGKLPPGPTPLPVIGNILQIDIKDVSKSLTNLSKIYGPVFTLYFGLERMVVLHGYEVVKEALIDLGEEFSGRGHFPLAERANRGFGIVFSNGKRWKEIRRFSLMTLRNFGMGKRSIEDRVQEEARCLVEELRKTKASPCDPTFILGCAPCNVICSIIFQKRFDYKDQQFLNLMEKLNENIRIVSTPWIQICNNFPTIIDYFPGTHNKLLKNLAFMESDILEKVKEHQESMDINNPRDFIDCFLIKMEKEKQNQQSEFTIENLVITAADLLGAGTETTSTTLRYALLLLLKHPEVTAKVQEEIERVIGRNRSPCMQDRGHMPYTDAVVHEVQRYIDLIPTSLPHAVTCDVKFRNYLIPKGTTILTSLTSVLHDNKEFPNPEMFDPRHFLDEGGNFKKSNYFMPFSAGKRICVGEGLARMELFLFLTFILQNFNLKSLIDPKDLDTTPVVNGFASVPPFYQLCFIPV
# [9] = system: CYP3A; test: CYP3A phenotyping with midazolam; conditions: voriconazole 400 mg 2 h before cocktail
# [10] = after a 75-mg single dose, from free plasma fraction and liver/plasma ratio
# [11] = after a single 25-mg dose, approximately 3 times less than 75 mg
smiles,measurement,setting,value
"CC(NC(C)(C)C)C(=O)c1cccc(Cl)c1 (centres unmarked) [Bupropion, bupropion]",maximal estimated liver concentrations,[1]; [10],0.73 µmol/L
same,maximal estimated liver concentrations,[1]; [11],0.24 µmol/L
same,decrease in bupropion AUC,[2],approximately threefold
same,pKi,[3],4.68
"COc1ccc2c(c1)[C@]13CCCC[C@@H]1[C@H](C2)N(C)CC3 [Dextromethorphan, dextromethorphan]","Cmax and AUC in DBS vs plasma (mean ratio, blood to plasma ratio)",[4]; capillary DBS vs venous plasma,higher in DBS
"CC(C(=O)O)c1ccc(-c2ccccc2)c(F)c1 (centres unmarked) [Flurbiprofen, flurbiprofen]",blood plasma ratio,[4],~0.6
"Cc1ncc2n1-c1ccc(Cl)cc1C(c1ccccc1F)=NC2 [Midazolam, midazolam]",blood plasma ratio,[4],~0.6
"CC(NC(C)(C)CO)C(=O)c1cccc(Cl)c1 (centres unmarked) [OH-bup, 4′-hydroxybupropion]",maximal estimated liver concentrations,[1]; [10],1.13 µmol/L
same,maximal estimated liver concentrations,[1]; [11],0.38 µmol/L
same,maximal plasma concentrations,[5],0.52 µmol/L
same,pKi,[3],4.88
"COc1ccc2[nH]c([S+]([O-])Cc3ncc(C)c(OC)c3C)nc2c1 (centres unmarked) [Omeprazole, omeprazole]",blood plasma ratio,[4],~0.6
CC(NC(C)(C)C)C(O)c1cccc(Cl)c1 (centres unmarked) [erythrohydrobupropion],maximal estimated liver concentrations,[1]; [10],0.16 µmol/L
same,maximal estimated liver concentrations,[1]; [11],0.05 µmol/L
same,maximal plasma concentrations,[5],0.03 µmol/L
same,pKi,[3],5.77
COCCCC/C(=N\OCCN)c1ccc(C(F)(F)F)cc1 [fluvoxamine],effect on CYP1A2 activity,[6],potently inhibited
same,reported side effects,[7],four volunteers reported short-lasting troubled vision
CO[C@H]1/C=C/O[C@@]2(C)Oc3c(C)c(O)c4c(O)c(c(/C=N/N5CCN(C)CC5)c(O)c4c3C2=O)NC(=O)/C(C)=C\C=C\[C@H](C)[C@H](O)[C@@H](C)[C@@H](O)[C@@H](C)[C@H](OC(C)=O)[C@@H]1C [rifampicin],effect on CYP1A2 activity,[6],"slightly, but not significantly, increased"
same,extent of CYP2C19 induction,[8],4.2 fold and 2.6 fold
C[C@H](NC(C)(C)C)[C@@H](O)c1cccc(Cl)c1 [threohydrobupropion],maximal estimated liver concentrations,[1]; [10],1.31 µmol/L
same,maximal estimated liver concentrations,[1]; [11],0.44 µmol/L
same,maximal plasma concentrations,[5],0.24 µmol/L
same,pKi,[3],5.27
C[C@@H](c1ncncc1F)[C@](O)(Cn1cncn1)c1ccc(F)cc1F [voriconazole],reported side effects,[7],four volunteers reported short-lasting troubled vision
same,effect on CYP3A activity,[9],significantly inhibited
